# The supplement of paper PMC11208160
# Test: recombinant barcode read abundance after kanamycin selection (control-corrected) (log10(CPM+1)); higher = more efficient recombination; sequences stand for … in AGTGCAGAGAAAATCGGCCAGTTTTCTCTGCCTGCAGTCCGCATGCCGT…AGATTTATGCAGCGGACTGCCTTTCTCCCAAAGTGATAAACCGGACAGTATCATGGACCGGTTTTCCCGGTAATCCGTATTTGCAAGGTTGGTTTCACT; site = the 11-nt target
# In short: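 Each value is log10(CPM+1). It describes recombination efficiency, taken as averaged, control-corrected counts per million of barcodes at recombinant junctions. The pooled E. coli library paired targets with IS621 bridge RNA target-binding loops, was co-electroporated with a donor plasmid, and was plated twice on chloramphenicol/ampicillin LB agar (control) and twice on chloramphenicol/ampicillin/kanamycin containing 0.1 mM IPTG.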
# 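Further: IS621 recombinase and bridge RNA in Escherichia coli cells.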
row,Sequence,recombinant barcode read abundance (log10)
1,CAGGAGACTTGGGTTCTAACCTGTTGCCT (site TAGGAGACTGG),0.0578
2,CGCTCATCTTGGGTTCTAACCTGTTGCCT (site CGCTCATCTAG),0.0416
3,TGCACCTCTTGGGTTCTAACCTGTTGCTA (site CAATAGACTAG),0.0267
4,GTTCCGGCTTGGGTTCTAACCTGTTGCCT (site GTTACGGCTAG),0.139
5,GCCTGGTCTTGGGTTCTAACCTGTTGCCT (site TCCTCGTCTAG),0.122
6,GGGTCTTCTTGGGTTCTAACCTGTTGCAT (site GGGACTTCTAT),0.0343
7,TGGGTCACTTGGGTTCTAACCTGTTGCTA (site GTTTAATCTAT),0.0621
8,GACCAGCCTTGGGTTCTAACCTGTTGCGT (site GACCAGCCTAT),1.32
9,TTCATGTCTTGGGTTCTAACCTGTTGCTT (site TTCATGTCTAA),0.421
10,CACTCACCTTGGGTTCTAACCTGTTGCGG (site CACTTAGCTCC),0.0338
11,CGAGATCCTTGGGTTCTAACCTGTTGCAT (site CGAGGTACTAT),0
12,CTCTCGACTTGGGTTCTAACCTGTTGCCA (site CTCTCCACTTG),0.0478
13,GTGACTGCTTGGGTTCTAACCTGTTGCGT (site GTGACTGCTAC),1.46
14,TGTATGTCTTGGGTTCTAACCTGTTGCCT (site GGTATGTCTAG),0.402
15,CGTGGTCCTTGGGTTCTAACCTGTTGCTT (site CGTGGTCCTAA),0.919
16,CATGTACCTTGGGTTCTAACCTGTTGCCT (site AATGTACCTAG),0.0837
17,AATAAGACTTGGGTTCTAACCTGTTGCCA (site AATAGGACTTA),0.134
18,CACACGACTTGGGTTCTAACCTGTTGCTT (site CACACGACTAA),0.496
19,GATACGGCTTGGGTTCTAACCTGTTGCCT (site GATACGCCTAG),0
20,GACACTGCTTGGGTTCTAACCTGTTGCCT (site GATACTGCTAG),0.233
21,CGGAAATCTTGGGTTCTAACCTGTTGCCT (site CGTAAATCTAG),0.0515
22,AATCGCACTTGGGTTCTAACCTGTTGCCT (site AATCGCACTAG),0.216

row,Sequence,recombinant barcode read abundance (log10)
1,CCTCAGGCTTGGGTTCTAACCTGTTGCCC (site CCTCAGGCTAG),0.0156
2,GATAGTCCTTGGGTTCTAACCTGTTGCCT (site GATAGTACTAG),0.122
3,GGGACTACTTGGGTTCTAACCTGTTGCGG (site CGGGCTACTCC),0.0949
4,GTAGGCGCTTGGGTTCTAACCTGTTGCCT (site GTGGGCGCTAG),0.441
5,TGTCAAGCTTGGGTTCTAACCTGTTGCCT (site TGTCAAACTAG),0.574
6,ATTTGACCTTGGGTTCTAACCTGTTGCCG (site ATTTGACCTCG),0.67
7,ACGTAATCTTGGGTTCTAACCTGTTGCTT (site CGGTAATCTAA),0.246
8,ACCCAGTCTTGGGTTCTAACCTGTTGCCA (site AACCAGTCTCG),0.12
9,TGGTTGTCTTGGGTTCTAACCTGTTGCCT (site TGGCTGTCTAG),0.522
10,GGGCCTACTTGGGTTCTAACCTGTTGCTA (site GGGCCTACTTA),1.36
11,TATATGACTTGGGTTCTAACCTGTTGCGG (site TATATGACTCC),1.41
12,TGGTGCGCTTGGGTTCTAACCTGTTGCCT (site TGGTACGCTAG),0.33
13,CAGGGGACTTGGGTTCTAACCTGTTGCAC (site TCCAACCCTAA),0.0666
14,TCGAGTCCTTGGGTTCTAACCTGTTGCCT (site TCGAGTCCTAG),0.101
15,TATCGGCCTTGGGTTCTAACCTGTTGCCT (site TAGCGGCCTAG),0.0857
16,CCAGTCACTTGGGTTCTAACCTGTTGCCT (site CCAGTTACTAG),0.19
17,GAGGGCCCTTGGGTTCTAACCTGTTGCAG (site GAGGGCCCTCT),2.88
18,CAGTGCTCTTGGGTTCTAACCTGTTGCCA (site CAGTGCTCTTG),1.52
19,TTCTGTCCTTGGGTTCTAACCTGTTGCCT (site TTCTGTCCTAG),0.799
20,CGCGAGTCTTGGGTTCTAACCTGTTGCTG (site CGCGAGTCTCA),0.254
21,GTCCAGTCTTGGGTTCTAACCTGTTGCGT (site GTCCAGTCTAC),3.16
22,ATATGGGCTTGGGTTCTAACCTGTTGCCG (site ATATGCGCTCG),0.0627

row,Sequence,recombinant barcode read abundance (log10)
1,GCCCTTGCTTGGGTTCTAACCTGTTGCCT (site GAACTTGCTAG),0.114
2,GGCGATCCTTGGGTTCTAACCTGTTGCCT (site GGCGATCCTAG),1.15
3,TACGACGCTTGGGTTCTAACCTGTTGCCT (site TAAGACGCTAG),0.0663
4,GTAGGCGCTTGGGTTCTAACCTGTTGCCT (site GTAGGCGCTAG),1.96
5,CATTTCCCTTGGGTTCTAACCTGTTGCTT (site CATTTCCCTAG),0.246
6,GTAAAGTCTTGGGTTCTAACCTGTTGCCA (site GTAAAGTCTTG),0.276
7,GAGCGAGCTTGGGTTCTAACCTGTTGCAG (site GAGCGAGCTCG),0.175
8,TATGTAGCTTGGGTTCTAACCTGTTGCCA (site TATGTAGCTAG),0.22
9,CGGCGTCCTTGGGTTCTAACCTGTTGCCG (site CGGCGTCCTAG),0.498
10,CGACAGTCTTGGGTTCTAACCTGTTGCGT (site CGACAGTCTAC),2.41
11,GTATCTCCTTGGGTTCTAACCTGTTGCGG (site GTATCTCCTCC),0.0723
12,CTAACCTCTTGGGTTCTAACCTGTTGCTT (site CTAACCTCTGA),0.178
13,AACTTTCCTTGGGTTCTAACCTGTTGCAT (site AACTATCCTAT),0.0732
14,CGAAATGCTTGGGTTCTAACCTGTTGCCT (site CGTAATGCTAG),0.77
15,AATCGCACTTGGGTTCTAACCTGTTGCCT (site AATACCACTAG),0
16,TCTTCGACTTGGGTTCTAACCTGTTGCAG (site GGAAAAGCTAA),0.0479
17,CTATTGTCTTGGGTTCTAACCTGTTGCGG (site CTATTGTCTTC),0.17
18,CGATCCACTTGGGTTCTAACCTGTTGCTG (site CGATCCACTCA),0.483
19,CCGTCTACTTGGGTTCTAACCTGTTGCCT (site CGGTCTACTAG),0.0454
20,ACCAGTACTTGGGTTCTAACCTGTTGCCT (site ACCAGTACTAG),0.0544
21,GGCGTGTCTTGGGTTCTAACCTGTTGCGG (site GGCGTGTCTCC),2.07
22,AAGAATACTTGGGTTCTAACCTGTTGCCT (site GAGAATACTAC),0.011

row,Sequence,recombinant barcode read abundance (log10)
1,AAGCTAACTTGGGTTCTAACCTGTTGCCT (site AAGCCAACTAG),0.299
2,CAGAGCTCTTGGGTTCTAACCTGTTGCCT (site CAGAGGTCTAG),0.309
3,ATAGCAACTTGGGTTCTAACCTGTTGCCT (site ATAGCGACTAG),0.0185
4,CCGCTACCTTGGGTTCTAACCTGTTGCCT (site CCGCTACCTAG),0.956
5,CTCCGAACTTGGGTTCTAACCTGTTGCTT (site CTCCGTACTAT),0.0428
6,CATGTACCTTGGGTTCTAACCTGTTGCCT (site GATGTACCTAG),0.145
7,ATGAGGACTTGGGTTCTAACCTGTTGCCT (site GTGAGGACTAG),0.12
8,GCGCGAACTTGGGTTCTAACCTGTTGCCT (site GCTCGAACTAG),0.125
9,AACTCATCTTGGGTTCTAACCTGTTGCCT (site AACTGATCTAG),0.149
10,CCGCGGCCTTGGGTTCTAACCTGTTGCCT (site CCGCGGCCTAG),0.459
11,CGCTAGTCTTGGGTTCTAACCTGTTGCCT (site CGCTCGTCTAG),0.22
12,AGAGTGACTTGGGTTCTAACCTGTTGCCT (site AGAGCGACTAG),0.0794
13,CTAAGCACTTGGGTTCTAACCTGTTGCCG (site CTAAGCACTCG),0.671
14,AGAAATTCTTGGGTTCTAACCTGTTGCCT (site AGCAATTCTAG),0.0252
15,CTCTCAGCTTGGGTTCTAACCTGTTGCGA (site CTCTAAACTTC),0.15
16,CTACGTACTTGGGTTCTAACCTGTTGCGT (site CTACGTACTAC),0.051
17,CGGAAATCTTGGGTTCTAACCTGTTGCCT (site CGAAAATCTAG),0.171
18,CCTTGTGCTTGGGTTCTAACCTGTTGCGT (site TAGGTATCTCT),0.0915
19,TCTTTACCTTGGGTTCTAACCTGTTGCCT (site CCTTTACCTAG),0.182
20,CTACAACCTTGGGTTCTAACCTGTTGCTT (site CTACAGCCTAA),0.109
